pIC50: −log10 of the molar value.
Target: T1, Cyclic GMP-AMP synthase (Homo sapiens, UniProt Q8N884)
Assay: Inhibition of CGAS in human THP1 cells transfected with interferon stimulatory DNA and measured after 16 hrs by Gaussia luciferase reporter gene assay
Type: cell-based

T1 sequence (Q8N884 whole entry): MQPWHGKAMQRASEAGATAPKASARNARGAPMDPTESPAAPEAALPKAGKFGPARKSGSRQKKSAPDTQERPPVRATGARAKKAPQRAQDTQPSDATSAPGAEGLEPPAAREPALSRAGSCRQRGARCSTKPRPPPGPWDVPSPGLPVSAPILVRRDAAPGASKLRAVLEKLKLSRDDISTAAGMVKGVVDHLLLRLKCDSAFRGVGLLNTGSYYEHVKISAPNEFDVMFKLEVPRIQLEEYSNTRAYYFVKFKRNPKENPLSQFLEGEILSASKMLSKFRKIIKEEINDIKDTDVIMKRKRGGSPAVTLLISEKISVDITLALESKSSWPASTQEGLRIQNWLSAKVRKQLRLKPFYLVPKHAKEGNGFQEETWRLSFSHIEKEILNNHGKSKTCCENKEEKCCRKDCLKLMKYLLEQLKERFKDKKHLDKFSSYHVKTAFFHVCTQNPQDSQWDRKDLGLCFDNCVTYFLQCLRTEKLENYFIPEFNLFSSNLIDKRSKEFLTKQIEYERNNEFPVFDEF

Structure (SMILES)	pIC50
COc1cc(/C=C2\SC(=O)N(C)C2=O)c(Cl)cc1O	≥ 5.60
CN1C(=O)S/C(=C\c2cc(O)c(O)cc2Br)C1=O	5.00 to 5.60
COc1cc(/C=C2\SC(=S)N(C)C2=O)c(Br)cc1O	5.00 to 5.60
C#CCOc1cc(/C=C2\SC(=O)N(C)C2=O)c(Br)cc1O	5.00 to 5.60
COc1cc(/C=C2\SC(=O)N(C)C2=O)c(Br)cc1NS(=O)(=O)c1ccccn1	5.00 to 5.60
COc1cc(/C=c2\sc3nccn3c2=O)c(Br)cc1O	5.00 to 5.60
CCOc1cc(/C=C2\SC(=O)N(C)C2=O)c(Br)cc1O	≥ 5.60

Target: T1, Cyclic GMP-AMP synthase
Assay: Inhibition of recombinant His6-SUMO tagged human CGAS expressed in Escherichia coli BL21/pLys cells incubated for 20 mins by Kinase Glo chemiluminescence assay

Structure (SMILES)	pIC50
CC(Oc1cc(/C=C2\SC(=O)N(C)C2=O)c(Br)c(F)c1O)c1cncnc1 (centres undefined)	≤ 5.00
CN1C(=O)S/C(=C\c2cc(OCC(=O)Nc3nncs3)c(O)c(F)c2Br)C1=O	5.00 to 6.30
Cc1ncc(COc2cc(/C=C3\SC(=O)N(C)C3=O)c(Br)c(F)c2O)cn1	5.00 to 6.30
CC(Oc1cc(/C=C2\SC(=O)N(C)C2=O)c(Br)c(F)c1Oc1cnc(N)s1)c1cnc(N)nc1 (centres undefined)	5.00 to 6.30
CC(=O)c1cc(N)ccc1Oc1cc(/C=C2\SC(=O)N(C)C2=O)c(Br)c(F)c1O	≤ 5.00
CN1C(=O)S/C(=C\c2cc(OCc3cnc(NCc4ccccn4)nc3)c(O)c(F)c2Br)C1=O	≤ 5.00
COc1cc(/C=C2\SC(=O)N(C)C2=O)c(Br)cc1Oc1cnc(NCc2cccnc2)s1	≤ 5.00
COc1cc(/C=C2\SC(=O)N(C)C2=O)c(Cl)cc1O	≥ 6.30
CN1C(=O)S/C(=C\c2cc(O)c(O)cc2Br)C1=O	≤ 5.00
CN1C(=O)S/C(=C\c2cc(C(C)(F)F)c(O)cc2Br)C1=O	≤ 5.00
CN1C(=O)S/C(=C\c2cc(C(F)(F)F)c(O)cc2Br)C1=O	≥ 6.30
CSc1ccc(CCc2cc(/C=C3\SC(=O)N(C)C3=O)c(Br)cc2O)cc1	5.00 to 6.30
Cc1nc(N)nc(C)c1COc1cc(/C=C2\SC(=O)N(C)C2=O)c(Br)cc1O	≤ 5.00
CN1C(=O)S/C(=C\c2cc(OCc3cnc(-n4ccnc4)nc3)c(O)cc2Br)C1=O	5.00 to 6.30
CN1C(=O)S/C(=C\c2cc(Oc3ccc(-c4ccncc4)cc3)c(O)cc2Br)C1=O	≤ 5.00
COc1cc(/C=C2\SC(=S)N(C)C2=O)c(Br)cc1O	≥ 6.30
Cc1nc(N)ncc1C(C)Oc1cc(/C=C2\Sc3ncccc3C2=O)c(Br)c(F)c1O (centres undefined)	≥ 6.30
CN1C(=O)S/C(=C\c2cc(CC(F)(F)F)c(O)cc2Br)C1=O	5.00 to 6.30
Cc1nc([S+](C)[O-])nc(C)c1COc1cc(/C=C2\SC(=O)N(C)C2=O)c(Br)cc1O (centres undefined)	≤ 5.00
CCC(Oc1cc(/C=C2\SC(=O)N(C)C2=O)c(Br)c(F)c1O)c1cnc(Cl)nc1 (centres undefined)	5.00 to 6.30
CN1C(=O)S/C(=C\c2cc(Oc3cccc4cnccc34)c(O)cc2Br)C1=O	≤ 5.00
CN1C(=O)S/C(=C\c2cc(Oc3cccc4ncccc34)c(O)cc2Br)C1=O	≤ 5.00
CN1C(=O)S/C(=C\c2cc(OCc3cnc(-n4cccn4)nc3)c(O)cc2Br)C1=O	5.00 to 6.30
CN1C(=O)S/C(=C\c2cc(OCC(F)(F)c3cnc(N)nc3)c(O)c(F)c2Br)C1=O	5.00 to 6.30
CN1C(=O)S/C(=C\c2cc3cc[nH]c3c(F)c2Br)C1=O	5.00 to 6.30
O=C1/C(=C/c2cc(C(F)(F)F)c(O)cc2Br)Sc2ncccc21	≥ 6.30

Structure (SMILES)	pIC50
C#CCOc1cc(/C=C2\SC(=O)N(C)C2=O)c(Br)cc1O	5.00 to 6.30
CN1C(=O)S/C(=C\c2cc(OC(F)(F)F)c(Oc3cnc(N)s3)cc2Br)C1=O	≤ 5.00
CN1C(=O)S/C(=C\c2cc(Oc3ccc(=O)[nH]c3)c(O)cc2Br)C1=O	5.00 to 6.30
Cc1ncc(C(C)Oc2cc(/C=C3\SC(=O)N(C)C3=O)c(Br)cc2O)cn1 (centres undefined)	≤ 5.00
COc1cc(/C=C2\SC(=O)N(C)C2=O)c(Br)cc1NS(=O)(=O)c1ccccn1	≤ 5.00
CN1C(=O)S/C(=C\c2cc(OCc3cnc(O)nc3)c(O)cc2Br)C1=O	≤ 5.00
COCCNc1ncc(C(C)Oc2cc(/C=C3\SC(=O)N(C)C3=O)c(Br)cc2O)cn1 (centres undefined)	5.00 to 6.30
CN1C(=O)S/C(=C\c2cc(OCC3(c4cnc(N)nc4)CC3)c(O)c(F)c2Br)C1=O	5.00 to 6.30
CC(Oc1cc(/C=C2\SC(=O)N(C)C2=O)c(Br)c(F)c1O)C(O)c1cncnc1N (centres undefined)	≥ 6.30
CN1C(=O)S/C(=C\c2cc(OCCc3cnc(N)nc3N)c(O)c(F)c2Br)C1=O	≥ 6.30
CC(Oc1cc(/C=C2\SC(=O)N(C)C2=O)c(Br)cc1O)c1cnc(NCCO)nc1 (centres undefined)	5.00 to 6.30
COc1cc(/C=C2\SC(=O)N(C)C2=O)c(Br)cc1Oc1ccncc1	≤ 5.00
CN1C(=O)S/C(=C\c2cc(Oc3cccc4c3COCC4)c(O)cc2Br)C1=O	≤ 5.00
Cc1nc2c(Oc3cc(/C=C4\SC(=O)N(C)C4=O)c(Br)cc3O)cccc2o1	5.00 to 6.30
CN1C(=O)S/C(=C\c2cc(OCCc3ccncc3)c(O)cc2Br)C1=O	5.00 to 6.30
O=C1/C(=C/c2cc(OCc3cnc(NCc4ccccn4)nc3)c(O)cc2Br)Sc2ncccc21	≥ 6.30
CN1C(=O)S/C(=C\c2cc(OCc3ccc4ncccc4c3)c(O)cc2Br)C1=O	≤ 5.00
CC(Cc1cnc(N)nc1)Oc1cc(/C=C2\SC(=O)N(C)C2=O)c(Br)c(F)c1O (centres undefined)	5.00 to 6.30
CN1C(=O)S/C(=C\c2cc(OCc3cnc(N)nc3C(F)(F)F)c(O)cc2Br)C1=O	≥ 6.30
CN1C(=O)S/C(=C\c2cc(CCc3cnc(N)nc3)c(O)cc2Br)C1=O	5.00 to 6.30
CN1C(=O)S/C(=C\c2cc(OCc3ccnc4ccccc34)c(O)cc2Br)C1=O	≤ 5.00
CN1C(=O)S/C(=C\c2cc(OCc3cncc(NC(=O)c4cccnc4)c3)c(O)cc2Br)C1=O	≤ 5.00
CN1C(=O)S/C(=C\c2cc(Oc3cnc(N)s3)c(O)c(F)c2Br)C1=O	5.00 to 6.30
CN1C(=O)S/C(=C\c2cc3c(-c4ccc(N)cc4)c[nH]c3cc2Br)C1=O	5.00 to 6.30
CCOc1cc(/C=C2\SC(=O)N(C)C2=O)c(Br)cc1O	≥ 6.30

The remaining lines, values ahead:

pIC50	Structure (SMILES)
≤ 5.00	CN1C(=O)S/C(=C\c2cc(Oc3cccc(O)c3N)c(O)cc2Br)C1=O
≤ 5.00	CC(C)c1cc(/C=C2\SC(=O)N(C)C2=O)c(Br)cc1O
≤ 5.00	CC(=O)c1cc(/C=C2\SC(=O)N(C)C2=O)c(Br)cc1Oc1cnc(N)s1
≥ 6.30	CN1C(=O)S/C(=C\c2cc(OCc3cncnc3O)c(O)cc2Br)C1=O
≤ 5.00	CC(C)CNc1cncc(COc2cc(/C=C3\SC(=O)N(C)C3=O)c(Br)cc2O)c1
≤ 5.00	CN1C(=O)S/C(=C\c2cc(OCc3cncc(NCc4ccncc4)c3)c(O)cc2Br)C1=O
≥ 6.30	CSc1nc([S+](C)[O-])ncc1COc1cc(/C=C2\Sc3ncccc3C2=O)c(Br)c(F)c1O (centres undefined)
≤ 5.00	COc1nc(N)ncc1COc1cc(/C=C2\SC(=O)N(C)C2=O)c(Br)cc1O
≤ 5.00	COc1cc(/C=C2\SC(=O)N(C)C2=O)c(Br)cc1OCc1ccncc1
≥ 6.30	CN1C(=O)S/C(=C\c2cc(OCc3cnc(NC(=O)c4ccncc4)nc3)c(O)c(F)c2Br)C1=O
≤ 5.00	CN1C(=O)S/C(=C\c2cc3c(Cc4cnc(N)nc4)c[nH]c3cc2Br)C1=O
≤ 5.00	CN1C(=O)S/C(=C\c2cc(Oc3ccc(-c4ccccn4)cc3)c(O)cc2Br)C1=O
≤ 5.00	CN1C(=O)S/C(=C\c2cc(OCc3cnc([S+](C)[O-])nc3Cl)c(O)cc2Br)C1=O (centres undefined)
≤ 5.00	CN1C(=O)S/C(=C\c2cc(CCc3ccc([S+](C)[O-])cc3)c(O)cc2Br)C1=O (centres undefined)
≤ 5.00	CC(C)C(=O)Nc1cncc(COc2cc(/C=C3\SC(=O)N(C)C3=O)c(Br)cc2O)c1
≤ 5.00	CN1C(=O)S/C(=C\c2cc(OCc3cnc(S)nc3)c(O)cc2Br)C1=O
≤ 5.00	CN1C(=O)S/C(=C\c2cc(OCc3cn(-c4ccccc4)nn3)c(O)cc2Br)C1=O
≤ 5.00	CN1C(=O)S/C(=C\c2cc(OCc3cnc(S(C)(=O)=O)nc3Cl)c(O)cc2Br)C1=O
≥ 6.30	CNc1ncc(COc2cc(/C=C3\SC(=O)N(C)C3=O)c(Br)c(F)c2O)cn1
≤ 5.00	CSc1ncncc1C(=O)C(C)Oc1cc(/C=C2\SC(=O)N(C)C2=O)c(Br)c(F)c1O (centres undefined)
≤ 5.00	COc1cc(/C=C2\SC(=O)N(C)C2=O)c(Br)cc1Oc1ccnc2ccccc12
≤ 5.00	CC(C)c1cc(/C=C2\Sc3ncccc3C2=O)c(Br)cc1O
≤ 5.00	C/N=C1/S/C(=C\c2cc(OC)c(O)cc2Br)C(=O)N1C

pIC50	Structure (SMILES)
≥ 6.30	Nc1ncc(/C=C/c2cc(/C=C3\Sc4ncccc4C3=O)c(Br)cc2O)cn1
≤ 5.00	CCC/N=C1/S/C(=C\c2cc(OC)c(O)cc2Br)C(=O)N1C
≤ 5.00	Cc1nc(N)ncc1C(C)Oc1cc(/C=C2\SC(=O)N(C)C2=O)c(Br)cc1O (centres undefined)
≥ 6.30	COc1cc(/C=c2\sc3nccn3c2=O)c(Br)cc1O
≤ 5.00	COc1cc(/C=C2\SC(=O)N(C)C2=O)c(C#N)cc1O
≤ 5.00	CN1CCN(c2ncc(COc3cc(/C=C4\SC(=O)N(C)C4=O)c(Br)cc3O)cn2)CC1
≤ 5.00	CN1CCC(c2ncc(COc3cc(/C=C4\SC(=O)N(C)C4=O)c(Br)cc3O)cn2)CC1
≤ 5.00	CN1C(=O)S/C(=C\c2cc(OCc3cncc(NC(=O)c4ccncc4)c3)c(O)cc2Br)C1=O
≤ 5.00	CN1C(=O)S/C(=C\c2cc(OCc3cncc4ccccc34)c(O)cc2Br)C1=O
≤ 5.00	COc1cc(/C=C2\SC(=O)N(C)C2=O)c(Br)cc1Oc1cnc(NCc2ccncc2)s1
≥ 6.30	O=C1/C(=C/c2cc(OCc3cnc(NCc4cccnc4)nc3)c(O)cc2Br)Sc2ncccc21
≤ 5.00	COc1cccc(Oc2cc(/C=C3\SC(=O)N(C)C3=O)c(Br)cc2O)c1N
≤ 5.00	CN1C(=O)S/C(=C\c2cc(OCc3cccc4cnccc34)c(O)cc2Br)C1=O
≥ 6.30	CN1C(=O)S/C(=C\c2cc(OCc3cnc(NCc4ccncc4)nc3)c(O)c(F)c2Br)C1=O
≤ 5.00	COc1nc(S(C)(=O)=O)ncc1COc1cc(/C=C2\SC(=O)N(C)C2=O)c(Br)cc1O
≥ 6.30	[2H]C(C)(Oc1cc(/C=C2\SC(=O)N(C)C2=O)c(Br)c(F)c1O)c1cnc(N)nc1 (centres undefined)
≤ 5.00	CN1C(=O)S/C(=C\c2cc(OCc3ccc4cccnc4c3)c(O)cc2Br)C1=O
≤ 5.00	COc1nc([S+](C)[O-])ncc1COc1cc(/C=C2\SC(=O)N(C)C2=O)c(Br)cc1O (centres undefined)
≤ 5.00	CC/N=C1/S/C(=C\c2cc(OC)c(O)cc2Br)C(=O)N1C
≤ 5.00	CN1C(=O)S/C(=C\c2cc(OCc3cncc(NCc4ccccn4)c3)c(O)cc2Br)C1=O
≤ 5.00	CN1C(=O)S/C(=C\c2cc(Oc3ccncc3)c(O)cc2Br)C1=O
≤ 5.00	COc1cc(/C=C2\SC(=O)N(C)C2=O)c(Br)cc1Oc1nncs1
≤ 5.00	CC(Oc1cc(CC2Sc3ncccc3C2=O)c(Br)c(F)c1O)c1cnc(Cl)nc1 (centres undefined)

From ChEMBL document CHEMBL4418308, “cGAS ANTAGONIST COMPOUNDS” (2017)
